Data published in ChEMBL document CHEMBL3616443, “Synthesis and biological evaluation of ring A and/or C expansion and opening echinocystic acid derivatives for anti-HCV entry inhibitors” (2015).
Calls of active or inactive are those of the source. The calls are words filed in the database; no cut-off is given here.

Tests used:
Hepatitis C virus [1] = assay: Antiviral activity against HCV psuedoparticles infected in human Huh7 cells assessed as inhibition of virus entry at 1 to 5 uM using Bright Glo reagent after 72 hrs by Luciferase reporter gene assay; assay type: functional
[2] = tested on: Vesicular stomatitis virus; assay: Antiviral activity against VSV psuedoparticles infected in human Huh7 cells assessed as inhibition of virus entry at 1 to 5 uM using Bright Glo reagent after 72 hrs by Luciferase reporter gene assay; assay type: functional, organism-based; conditions: Huh-7
Hepatitis C virus [3] = assay: Antiviral activity against HCV psuedoparticles infected in human Huh7 cells assessed as inhibition of virus entry at 10 uM using Bright Glo reagent after 72 hrs by Luciferase reporter gene assay; assay type: functional, Hepacivirus hominis, Huh-7; parameters: scale not given: the % may be the effect or the level left

Row | SMILES | Activity (Hepatitis C virus [1]; Hepacivirus hominis, Huh-7) | Activity [2] | Activity (Hepatitis C virus [3]) | Activity (Hepatitis C virus [1])
1 | CC1(C)CC[C@]2(C(=O)O)[C@H](O)C[C@]3(C)[C@H](C(=O)OC[C@@H]4[C@@](C)(CCC(=O)O)[C@H](C(C)(C)O)CC[C@]43C)[C@@H]2C1 | Active | inactive | – | –
2 | CC1(C)CC[C@]2(C(=O)O)[C@H](O)C[C@]3(C)[C@H](C(=O)C[C@@H]4[C@@]5(C)CCC(=O)OC(C)(C)[C@@H]5CC[C@]43C)[C@@H]2C1 | Active | inactive | – | –
3 | CC1(C)CC[C@]2(C(=O)O)[C@H](O)C[C@]3(C)[C@H](OC(=O)C[C@@H]4[C@@]5(C)CCC(=O)OC(C)(C)[C@@H]5CC[C@]43C)[C@@H]2C1 | Active | inactive | – | –
4 | CC1(C)CC[C@]2(C(=O)O)[C@H](O)C[C@]3(C)[C@H](OC(=O)C[C@@H]4[C@@](C)(CCC(=O)O)[C@H](C(C)(C)O)CC[C@]43C)[C@@H]2C1 | Active | inactive | – | –
5 | CC1(C)CC[C@]2(CO)[C@H](O)C[C@]3(C)[C@H](C(O)C[C@@H]4[C@@](C)(CCCO)[C@H](C(C)(C)O)CC[C@]43C)[C@@H]2C1 (stereo not given in full) | Active | inactive | – | –
6 | CC1(C)CC[C@]2(C(=O)O)[C@H](O)C[C@]3(C)[C@H](C(=O)OC[C@@H]4[C@@]5(C)CCC(=O)OC(C)(C)[C@@H]5CC[C@]43C)[C@@H]2C1 | Active | inactive | – | –
7 | CC1(C)CC[C@]2(CO)[C@H](O)C[C@@](C)([C@]3(C)CC[C@H]4C(C)(C)[C@@H](O)CC[C@]4(C)C3CCO)C(O)[C@@H]2C1 (stereo not given in full) | Active | inactive | – | –
8 | COC(=O)[C@]12CCC(C)(C)C[C@H]1[C@H]1C(=O)OC[C@@H]3[C@@]4(C)CC[C@H](O)C(C)(C)[C@@H]4CC[C@@]3(C)[C@]1(C)C[C@H]2O | Active | inactive | – | –
9 | CC1(C)[C@@H](O)CC[C@]2(C)[C@H]3C(=O)C=C4[C@@H]5C[C@@](C)(C(=O)O)CC[C@]5(C)CC[C@@]4(C)[C@]3(C)CC[C@@H]12 [ENOXOLONE] | – | – | 5% | –
10 | CC1(C)CC[C@]2(C(=O)O)[C@H](O)C[C@]3(C)[C@H](OC(=O)C[C@@H]4[C@@]5(C)CC[C@H](O)C(C)(C)[C@@H]5CC[C@]43C)[C@@H]2C1 | Active | inactive | – | –
11 | CC1(C)CC[C@]2(C(=O)O)[C@H](O)C[C@]3(C)[C@H](C(=O)C=C4[C@@]5(C)CC[C@H](O)C(C)(C)[C@@H]5CC[C@]43C)[C@@H]2C1 | Active | inactive | – | –
12 | CC1(C)CC[C@]2(C(=O)O)[C@H](O)C[C@]3(C)[C@H](C(=O)OC[C@@H]4[C@@]5(C)CC[C@H](O)C(C)(C)[C@@H]5CC[C@]43C)[C@@H]2C1 | Active | inactive | – | –
13 | COC(=O)[C@]12CCC(C)(C)C[C@H]1[C@H]1OC(=O)C[C@@H]3[C@@]4(C)CC[C@H](O)C(C)(C)[C@@H]4CC[C@@]3(C)[C@]1(C)C[C@H]2O | Active | inactive | – | –
14 | C=C(C)[C@@H]1CC[C@]2(C(=O)O)CC[C@]3(C)[C@H](CC[C@@H]4[C@@]5(C)CC[C@H](O)C(C)(C)[C@@H]5CC[C@]43C)[C@@H]12 [BETULINIC ACID] | – | – | 75% | –
15 | CC1(C)CC[C@]2(C(=O)O)[C@H](O)C[C@]3(C)C(=CC[C@@H]4[C@@]5(C)CC[C@H](O)C(C)(C)[C@@H]5CC[C@]43C)[C@H]2C1 [ECHINOCYSTIC ACID] | – | – | – | 90%
16 | C[C@H]1[C@H](C)CC[C@]2(C(=O)O)CC[C@]3(C)C(=CC[C@@H]4[C@@]5(C)CC[C@H](O)C(C)(C)[C@@H]5CC[C@]43C)[C@H]12 [URSOLIC ACID] | – | – | 30% | –
17 | CC1(C)CC[C@]2(C(=O)O)[C@H](O)C[C@]3(C)[C@H](C(=O)C[C@@H]4[C@@](C)(CCC(=O)O)[C@H](C(C)(C)O)CC[C@]43C)[C@@H]2C1 | Active | inactive | – | –
